Measurements taken from ChEMBL document CHEMBL4002623, “Synthesis and in vitro activity of dicationic indolyl diphenyl ethers as novel potent antibiotic agents against drug-resistant bacteria” (Bioorg Med Chem Lett, 2017).
Values after ≈ are worked out from the molar mass of the structure shown.

Key:
[1] = system: Enterococcus faecalis; experiment: Antibacterial activity against vancomycin-sensitive Enterococcus faecalis ATCC 29212 by agar dilution method; type: functional
[2] = system: Staphylococcus epidermidis; experiment: Antibacterial activity against methicillin-sensitive Staphylococcus epidermidis ATCC 12228 by agar dilution method; type: functional
[3] = system: Pseudomonas aeruginosa; experiment: Antibacterial activity against Pseudomonas aeruginosa PAO1 by agar dilution method; type: functional
[4] = system: Salmonella typhi; experiment: Antibacterial activity against Salmonella typhi H901 by agar dilution method; type: functional, Salmonella enterica subsp. enterica serovar Typhi; conditions: Salmonella enterica
[5] = system: Staphylococcus aureus; experiment: Antibacterial activity against methicillin-sensitive Staphylococcus aureus 09-6 by agar dilution method; type: functional
[6] = system: Klebsiella pneumoniae; experiment: Antibacterial activity against extended-spectrum beta-lactamase-positive Klebsiella pneumoniae 09-25 by agar dilution method; type: functional
[7] = system: Enterococcus faecalis; experiment: Antibacterial activity against vancomycin-resistant Enterococcus faecalis 09-9 by agar dilution method; type: functional
[8] = system: Klebsiella pneumoniae; experiment: Antibacterial activity against extended-spectrum beta-lactamase-positive Klebsiella pneumoniae ATCC 700603 by agar dilution method; type: functional
[9] = system: Klebsiella pneumoniae; experiment: Antibacterial activity against extended-spectrum beta-lactamase-negative Klebsiella pneumoniae 7 by agar dilution method; type: functional
[10] = system: Proteus vulgaris; experiment: Antibacterial activity against Proteus vulgaris ATCC 29905 by agar dilution method; type: functional
[11] = system: Acinetobacter calcoaceticus; experiment: Antibacterial activity against Acinetobacter calcoaceticus ATCC 19606 by agar dilution method; type: functional
[12] = system: Enterococcus faecium; experiment: Antibacterial activity against vancomycin-resistant Enterococcus faecium 05-8 by agar dilution method; type: functional
[13] = system: Klebsiella pneumoniae; experiment: Antibacterial activity against extended-spectrum beta-lactamase-negative Klebsiella pneumoniae 09-8 by agar dilution method; type: functional
[14] = system: Enterococcus faecium; experiment: Antibacterial activity against vancomycin-sensitive Enterococcus faecium 09-10 by agar dilution method; type: functional
[15] = Cytotoxicity against HEK293T cells after 48 hrs by MTS assay; type: cell-based, HEK-293T; conditions: human
[16] = system: Escherichia coli; experiment: Antibacterial activity against extended-spectrum beta-lactamase-negative Escherichia coli ATCC 25922 by agar dilution method; type: functional
[17] = system: Proteus mirabilis; experiment: Antibacterial activity against Proteus mirabilis 09-1 by agar dilution method; type: functional
[18] = system: Staphylococcus aureus; experiment: Antibacterial activity against methicillin-sensitive Staphylococcus aureus 15 by agar dilution method; type: functional
[19] = system: Enterococcus faecalis; experiment: Antibacterial activity against vancomycin-resistant Enterococcus faecalis ATCC 51299 by agar dilution method; type: functional
[20] = system: Staphylococcus epidermidis; experiment: Antibacterial activity against methicillin-resistant Staphylococcus epidermidis 09-3 by agar dilution method; type: functional
[21] = system: Enterococcus faecalis; experiment: Antibacterial activity against vancomycin-sensitive Enterococcus faecalis 09-8 by agar dilution method; type: functional
[22] = system: Pseudomonas aeruginosa; experiment: Antibacterial activity against Pseudomonas aeruginosa ATCC 27853 by agar dilution method; type: functional
[23] = system: Enterobacter cloacae; experiment: Antibacterial activity against Enterobacter cloacae 45301 by agar dilution method; type: functional
[24] = system: Serratia marcescens; experiment: Antibacterial activity against Serratia marcescens 41002 by agar dilution method; type: functional
[25] = system: Klebsiella aerogenes; experiment: Antibacterial activity against Enterobacter aerogenes 45102 by agar dilution method; type: functional
[26] = system: Providencia rettgeri; experiment: Antibacterial activity against Providencia rettgeri ATCC 31052 by agar dilution method; type: functional
[27] = system: Escherichia coli; experiment: Antibacterial activity against extended-spectrum beta-lactamase-negative Escherichia coli 09-20 by agar dilution method; type: functional
[28] = system: Staphylococcus aureus; experiment: Antibacterial activity against methicillin-resistant Staphylococcus aureus ATCC 33591 by agar dilution method; type: functional
[29] = system: Klebsiella pneumoniae; experiment: Antibacterial activity against Klebsiella pneumoniae ATCC BAA-2146 expressing NDM-1 by agar dilution method; type: functional
[30] = system: Citrobacter freundii; experiment: Antibacterial activity against Citrobacter freundii ATCC 43864 by agar dilution method; type: functional
[31] = system: Morganella morganii; experiment: Antibacterial activity against Morganella morganii ATCC 25830 by agar dilution method; type: functional
[32] = system: Staphylococcus epidermidis; experiment: Antibacterial activity against methicillin-sensitive Staphylococcus epidermidis 09-9 by agar dilution method; type: functional
[33] = system: Escherichia coli; experiment: Antibacterial activity against extended-spectrum beta-lactamase-positive Escherichia coli 09-1 by agar dilution method; type: functional
[34] = system: Enterococcus faecium; experiment: Antibacterial activity against vancomycin-resistant Enterococcus faecium ATCC 700221 by agar dilution method; type: functional
[35] = system: Staphylococcus aureus; experiment: Antibacterial activity against methicillin-resistant Staphylococcus aureus 09-13 by agar dilution method; type: functional
[36] = system: Staphylococcus aureus; experiment: Antibacterial activity against methicillin-sensitive Staphylococcus aureus ATCC 29213 by agar dilution method; type: functional
[37] = system: Pseudomonas aeruginosa; experiment: Antibacterial activity against Pseudomonas aeruginosa 09-14 by agar dilution method; type: functional
[38] = system: Escherichia coli; experiment: Antibacterial activity against extended-spectrum beta-lactamase-negative Escherichia coli 1515 by agar dilution method; type: functional

SMILES | MIC [1] [µg/mL] | MIC [2] [µg/mL] | MIC [3] [µg/mL] | MIC [4] [µg/mL] | MIC [5] [µg/mL] | MIC [6] [µg/mL] | MIC [7] [µg/mL] | MIC [8] [µg/mL] | MIC [9] [µg/mL] | MIC [10] [µg/mL] | MIC [11] [µg/mL] | MIC [12] [µg/mL] | MIC [13] [µg/mL] | MIC [14] [µg/mL] | CC50 at 48 h [15] [µg/mL] | MIC [16] [µg/mL] | MIC [17] [µg/mL] | MIC [18] [µg/mL] | MIC [19] [µg/mL] | MIC [20] [µg/mL] | also measured
N=C(NC1CCCCC1)c1ccc2cc(-c3ccc(Oc4ccc(-c5cc6ccc(C(=N)NC7CCCCC7)cc6[nH]5)cc4)cc3)[nH]c2c1 | 4 (≈ 6.16 µM) | 1 (≈ 1.54 µM) | > 128 | 64 (≈ 98.6 µM) | 4 (≈ 6.16 µM) | 128 (≈ 197 µM) | 8 (≈ 12.3 µM) | > 128 | 128 (≈ 197 µM) | 128 (≈ 197 µM) | 64 (≈ 98.6 µM) | 4 (≈ 6.16 µM) | 128 (≈ 197 µM) | 8 (≈ 12.3 µM) | 59.2 (≈ 91.2 µM) | 64 (≈ 98.6 µM) | > 128 | 2 (≈ 3.08 µM) | 4 (≈ 6.16 µM) | 2 (≈ 3.08 µM) | MIC [21]: 4 µg/mL (≈ 6.16 µM); MIC [22]: > 128 µg/mL; MIC [23]: 128 µg/mL (≈ 197 µM); MIC [24]: 128 µg/mL (≈ 197 µM); MIC [25]: 128 µg/mL (≈ 197 µM); MIC [26]: > 128 µg/mL; MIC [27]: 128 µg/mL (≈ 197 µM); MIC [28]: 2 µg/mL (≈ 3.08 µM); MIC [29]: 128 µg/mL (≈ 197 µM); MIC [30]: 128 µg/mL (≈ 197 µM); MIC [31]: 64 µg/mL (≈ 98.6 µM); MIC [32]: 2 µg/mL (≈ 3.08 µM); MIC [33]: 128 µg/mL (≈ 197 µM); MIC [34]: 2 µg/mL (≈ 3.08 µM); MIC [35]: 2 µg/mL (≈ 3.08 µM); MIC [36]: 4 µg/mL (≈ 6.16 µM); MIC [37]: > 128 µg/mL; MIC [38]: 128 µg/mL (≈ 197 µM)
CC1CCN(C(=N)c2ccc3cc(-c4ccc(Oc5ccc(-c6cc7ccc(C(=N)N8CCC(C)CC8)cc7[nH]6)cc5)cc4)[nH]c3c2)CC1 | 64 (≈ 98.6 µM) | 4 (≈ 6.16 µM) | > 128 | > 128 | 16 (≈ 24.7 µM) | > 128 | 128 (≈ 197 µM) | > 128 | > 128 | > 128 | > 128 | 128 (≈ 197 µM) | > 128 | 128 (≈ 197 µM) | 3.2 (≈ 4.93 µM) | > 128 | > 128 | 16 (≈ 24.7 µM) | 128 (≈ 197 µM) | 8 (≈ 12.3 µM) | MIC [21]: 128 µg/mL (≈ 197 µM); MIC [22]: > 128 µg/mL; MIC [23]: > 128 µg/mL; MIC [24]: > 128 µg/mL; MIC [25]: > 128 µg/mL; MIC [26]: > 128 µg/mL; MIC [27]: > 128 µg/mL; MIC [28]: 16 µg/mL (≈ 24.7 µM); MIC [29]: > 128 µg/mL; MIC [30]: > 128 µg/mL; MIC [31]: > 128 µg/mL; MIC [32]: 8 µg/mL (≈ 12.3 µM); MIC [33]: > 128 µg/mL; MIC [34]: 16 µg/mL (≈ 24.7 µM); MIC [35]: 16 µg/mL (≈ 24.7 µM); MIC [36]: 16 µg/mL (≈ 24.7 µM); MIC [37]: > 128 µg/mL; MIC [38]: > 128 µg/mL
N=C(c1ccc2cc(-c3ccc(Oc4ccc(-c5cc6ccc(C(=N)N7CCCC7)cc6[nH]5)cc4)cc3)[nH]c2c1)N1CCCC1 | 8 (≈ 13.5 µM) | 0.5 (≈ 0.844 µM) | > 128 | 32 (≈ 54 µM) | 2 (≈ 3.37 µM) | 64 to 128 (≈ 108 to 216 µM) | 32 (≈ 54 µM) | 128 (≈ 216 µM) | 64 to 128 (≈ 108 to 216 µM) | 64 (≈ 108 µM) | > 128 | 8 (≈ 13.5 µM) | 64 (≈ 108 µM) | 8 (≈ 13.5 µM) | 3.2 (≈ 5.4 µM) | 16 (≈ 27 µM) | 128 (≈ 216 µM) | 1 (≈ 1.69 µM) | 8 (≈ 13.5 µM) | 1 (≈ 1.69 µM) | MIC [21]: 32 µg/mL (≈ 54 µM); MIC [22]: > 128 µg/mL; MIC [23]: 64 µg/mL (≈ 108 µM); MIC [24]: > 128 µg/mL; MIC [25]: > 128 µg/mL; MIC [26]: > 128 µg/mL; MIC [27]: 64 µg/mL (≈ 108 µM); MIC [28]: 1 µg/mL (≈ 1.69 µM); MIC [29]: 64 to 128 µg/mL (≈ 108 to 216 µM); MIC [30]: 128 µg/mL (≈ 216 µM); MIC [31]: 16 µg/mL (≈ 27 µM); MIC [32]: 2 µg/mL (≈ 3.37 µM); MIC [33]: 64 µg/mL (≈ 108 µM); MIC [34]: 2 µg/mL (≈ 3.37 µM); MIC [35]: 1 µg/mL (≈ 1.69 µM); MIC [36]: 2 µg/mL (≈ 3.37 µM); MIC [37]: > 128 µg/mL; MIC [38]: 64 µg/mL (≈ 108 µM)
